The source of these data is PMC7997572 (2020).

The term ΔTm denotes the shift of the melting midpoint relative to a reference.

Common to all, as to test: CD melting
For assay [1], the system named is Hairpin (DNA, hairpin) CGAATTCGTTTTCGAATTCG
The conditions noted are these: K+ (20 mM potassium phosphate, 5 mM KCl; Table S1 note: 5 mM phosphate, 20 mM KCl); pH 7.0; 300 μM compound (10 equiv), 30 μM DNA.

Assay [2] deals with Tel23-h (DNA, G4) TTAGGGTTAGGGTTAGGGTTAGGGTT
The following applies: K+ (20 mM potassium phosphate, 5 mM KCl; Table S1 note: 5 mM phosphate, 20 mM KCl); pH 7.0; 150 μM compound (10 equiv), 15 μM DNA.

Assay [3] relates to c-Myc (DNA, G4) TGAGGGTGGGTAGGGTGGGTAA
The following applies: K+ (20 mM potassium phosphate, 5 mM KCl; Table S1 note: 5 mM phosphate, 20 mM KCl), pH 7.0, 150 μM compound (10 equiv), 15 μM DNA.

Assay [4] has as its system c-Kit1 (DNA, G4) AGGGAGGGCGCTGGGAGGAGGG
The conditions noted are these: K+ (20 mM potassium phosphate, 5 mM KCl; Table S1 note: 5 mM phosphate, 20 mM KCl); pH 7.0; 150 μM compound (10 equiv), 15 μM DNA.

Assay [5] relates to c-Kit2 (DNA, G4) CGGGCGGGCGCTAGGGAGGGT
The conditions noted are these: K+ (20 mM potassium phosphate, 5 mM KCl; Table S1 note: 5 mM phosphate, 20 mM KCl); pH 7.0; 150 μM compound (10 equiv), 15 μM DNA.

The test system of assay [6] is Tel23-p (DNA, G4) TTAGGGTTAGGGTTAGGGTTAGGGTT
The following applies: K+ (20 mM potassium phosphate, 5 mM KCl; Table S1 note: 5 mM phosphate, 20 mM KCl); pH 7.0; 150 μM compound (10 equiv), 15 μM DNA.

In the case of `NC(N)=N/N=C/c1c(Cl)n(C/C=C/c2ccccc2)c2ccccc12`, the ΔTm in assay [1] is 0.0 ± 1.0 °C.

With `COc1cc2c(/C=N/NC(=N)N)c(Cl)n(C)c2cc1C`, in assay [1], the ΔTm turned out to be 7.0 ± 1.0 °C. `Cc1cc2c(cc1O)/C(=C\c1cccc(/C=N/NC(=N)N)c1)C(=O)N2`: the ΔTm in assay [2] worked out at 10.0 ± 1.0 °C. Consider `O=C1Nc2c(ccc3ccccc23)/C1=C\c1cccc(/C=N/NC2=NCCN2)c1`, for which the ΔTm in assay [3] (exact value not determinable) was above 22 °C; in assay [4] it was 14.5 ± 1.0 °C; in assay [5], 26.0 ± 1.0 °C.

For `CC(C)(C)c1cc(/C=N/NC(=N)N)c(O)c(/C=C2/C(=O)Nc3c2ccc2ccccc32)c1`, the values for the shift in melting temperature (ΔTm) in assay [4], in assay [6] and in assay [2] were 1.5 ± 1.0 °C, 27.0 ± 1.0 °C and 1.0 ± 1.0 °C, respectively. With `O=C1Nc2ccc(Cl)cc2/C1=C\c1cccc(/C=N/NC2=NCCN2)c1`, in assay [3], the ΔTm came out at 14.1 ± 1.0 °C.
